± gives the standard deviation of the averaged measurements.
Tests used:
[1] = compound: C[C@@H](Oc1cc(-c2cnn(C3CCNCC3)c2)cnc1N)c1c(Cl)ccc(F)c1Cl [CRIZOTINIB]; test: surviving fraction relative to DMSO-only wells; higher = less growth inhibition; details: exposure time: 5 days
How it was run: (§1)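 Surviving fraction is CellTiter-Glo luminescence divided by the median of wells given DMSO only. For this, log-phase tumour cell lines went into 384-well plates at 250–500 cells per well and, 24 hours later, into five days of continuous inhibitor exposure at 0.5, 1, 5, 10, 50, 100, 500 and 1000 nM. Lines were screened three times and retained only if replicate Pearson r >0.7 and median Z' >0.3.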

[2] = compound: C[C@]12CC[C@H](O)CC1=CC[C@@H]1[C@@H]2CC[C@]2(C)C(c3cccnc3)=CC[C@@H]12 [ABIRATERONE]; test: as above; details: exposure time: 5 days
How it was run: as §1

| Test System | surviving fraction ([1]; 0.5 nM) | surviving fraction ([1]; 1 nM) | surviving fraction ([1]; 5 nM) | surviving fraction ([1]; 10 nM) | surviving fraction ([1]; 100 nM) | surviving fraction ([1]; 500 nM) | surviving fraction ([1]; 1000 nM) | surviving fraction ([2]; 0.5 nM) | surviving fraction ([2]; 1 nM) | surviving fraction ([2]; 5 nM) | surviving fraction ([2]; 10 nM) | surviving fraction ([2]; 50 nM) | surviving fraction ([2]; 100 nM) | surviving fraction ([2]; 500 nM) | surviving fraction ([2]; 1000 nM) | surviving fraction ([1]; 50 nM) |
| --- | --- | --- | --- | --- | --- | --- | --- | --- | --- | --- | --- | --- | --- | --- | --- | --- |
| MDAMB453 BREAST | 1.1 ± 0.049 | 1.06 ± 0.064 | 1.17 ± 0.079 | 1.14 ± 0.12 | 1.11 ± 0.039 | 0.844 ± 0.042 | 0.803 ± 0.043 | 1.05 ± 0.053 | 1.04 ± 0.13 | 1.15 ± 0.028 | 1.06 ± 0.072 | 1.09 ± 0.086 | 1.08 ± 0.0082 | 1.01 ± 0.029 | 1.006 ± 0.0072 | – |
| MDAMB436 BREAST | 1.01 ± 0.032 | 0.97 ± 0.11 | 1.02 ± 0.086 | 1.03 ± 0.13 | 1.07 ± 0.022 | – | 0.916 ± 0.1 | 0.954 ± 0.13 | 0.934 ± 0.063 | 0.915 ± 0.083 | 0.93 ± 0.061 | 1.02 ± 0.049 | 0.895 ± 0.052 | 0.953 ± 0.035 | 0.894 ± 0.037 | 0.965 ± 0.11 |
| SIHA CERVIX | 1.08 ± 0.044 | 1.06 ± 0.079 | 1.12 ± 0.053 | 1.14 ± 0.061 | 1.09 ± 0.059 | 0.9 ± 0.028 | 0.662 ± 0.014 | 1.16 ± 0.013 | 1.15 ± 0.016 | 1.18 ± 0.11 | 1.12 ± 0.086 | 1.18 ± 0.064 | 1.22 ± 0.046 | 1.27 ± 0.06 | 1.16 ± 0.056 | 1.06 ± 0.046 |
| OS25HAL BONE | 1.06 ± 0.031 | 1.01 ± 0.028 | – | – | – | 0.929 ± 0.098 | 0.326 ± 0.016 | 1.02 ± 0.02 | 1.01 ± 0.011 | 1.039 ± 0.0055 | 0.989 ± 0.021 | 1.106 ± 0.0096 | 1.08 ± 0.017 | 1.07 ± 0.053 | 1.07 ± 0.034 | – |
| BT20 BREAST | 1.24 ± 0.013 | 1.23 ± 0.091 | 1.13 ± 0.059 | 1.25 ± 0.05 | 1.08 ± 0.031 | 1.13 ± 0.088 | 0.592 ± 0.095 | 1.17 ± 0.082 | 1.04 ± 0.23 | 1.22 ± 0.11 | 1.21 ± 0.2 | 1.12 ± 0.23 | 1.14 ± 0.15 | 1.13 ± 0.16 | 1 ± 0.14 | 1.05 ± 0.067 |
| HCT15 LARGE INTESTINE | 1.05 ± 0.083 | 1.1 ± 0.1 | 1.14 ± 0.044 | – | 1.17 ± 0.04 | 1.09 ± 0.049 | 0.265 ± 0.022 | 1.08 ± 0.027 | 1.12 ± 0.024 | 1.1 ± 0.054 | 1.1 ± 0.029 | 1.11 ± 0.026 | 1.1 ± 0.0051 | 1.11 ± 0.04 | 1.1 ± 0.036 | 1.18 ± 0.042 |
| A549 LUNG | 1.07 ± 0.027 | 1.07 ± 0.015 | – | – | 1.1 ± 0.025 | 1.09 ± 0.043 | 0.649 ± 0.07 | 1.04 ± 0.05 | 1.03 ± 0.059 | 1.05 ± 0.01 | 1.04 ± 0.045 | 1.1 ± 0.049 | 1.11 ± 0.019 | 1.08 ± 0.12 | 1.09 ± 0.087 | 1.09 ± 0.023 |
| YAMATO SYNOVIAL | 1.13 ± 0.056 | 1.1 ± 0.15 | 1.2 ± 0.14 | 1.1 ± 0.1 | 0.324 ± 0.031 | 0.221 ± 0.021 | 0.269 ± 0.021 | 1.37 ± 0.033 | 1.52 ± 0.058 | 1.48 ± 0.12 | 1.45 ± 0.14 | 1.39 ± 0.14 | 1.46 ± 0.078 | 1.38 ± 0.025 | 1.22 ± 0.14 | 0.563 ± 0.036 |
| SCC003 HEADNECK | 1.07 ± 0.043 | – | 1.08 ± 0.13 | 1.06 ± 0.064 | 1.09 ± 0.058 | 0.929 ± 0.1 | 0.793 ± 0.044 | 1.15 ± 0.044 | 1.11 ± 0.14 | 1.09 ± 0.08 | 1.14 ± 0.065 | 1.27 ± 0.084 | 1.13 ± 0.088 | 1.19 ± 0.042 | 1.1 ± 0.034 | 1.06 ± 0.045 |
| VCAP PROSTATE | 1.09 ± 0.13 | 0.987 ± 0.1 | 1.13 ± 0.2 | 1.09 ± 0.02 | – | 0.504 ± 0.013 | 0.36 ± 0.04 | 1.13 ± 0.024 | 1.07 ± 0.083 | 1.19 ± 0.049 | 1.12 ± 0.073 | 1.22 ± 0.1 | 1.18 ± 0.18 | 1.02 ± 0.1 | 0.967 ± 0.11 | 1.02 ± 0.15 |
| HELA CERVIX | 1.09 ± 0.057 | 1.07 ± 0.062 | 1.08 ± 0.055 | 1.09 ± 0.03 | 1.07 ± 0.08 | 1.09 ± 0.072 | 0.581 ± 0.028 | 1.08 ± 0.068 | 1.07 ± 0.037 | 1.1 ± 0.032 | 1.03 ± 0.023 | 1.2 ± 0.048 | 1.2 ± 0.062 | 1.23 ± 0.074 | 1.15 ± 0.055 | 1.09 ± 0.12 |
| C33A CERVIX | 0.954 ± 0.064 | 0.983 ± 0.088 | – | 1.04 ± 0.13 | – | 0.925 ± 0.076 | 0.828 ± 0.092 | 1.19 ± 0.19 | 1.13 ± 0.059 | 1.19 ± 0.063 | 1.03 ± 0.022 | 1.12 ± 0.08 | 1.17 ± 0.068 | 1.2 ± 0.027 | 1.06 ± 0.13 | – |
| HU09 BONE | 0.86 ± 0.084 | 0.956 ± 0.13 | 1.13 ± 0.099 | 1.14 ± 0.06 | 1.02 ± 0.042 | 0.511 ± 0.063 | 0.233 ± 0.048 | 1.02 ± 0.086 | 1.11 ± 0.048 | 1.17 ± 0.18 | 1.12 ± 0.14 | 1.21 ± 0.086 | 1.18 ± 0.13 | 1.03 ± 0.089 | 1.05 ± 0.12 | 1.02 ± 0.044 |
| SCC47 HEADNECK | 1.11 ± 0.056 | 1.08 ± 0.068 | 1.13 ± 0.048 | 1.16 ± 0.034 | 1.15 ± 0.11 | – | – | 1.18 ± 0.061 | 1.11 ± 0.027 | 1.17 ± 0.061 | 1.19 ± 0.1 | 1.22 ± 0.13 | 1.36 ± 0.098 | 1.25 ± 0.093 | 1.17 ± 0.077 | 1.18 ± 0.018 |
| SUM149.B1*.S BREAST | 1.12 ± 0.043 | 1.19 ± 0.041 | 1.15 ± 0.052 | 1.14 ± 0.067 | 1.18 ± 0.059 | 1.11 ± 0.029 | 1.03 ± 0.047 | 1.11 ± 0.055 | 1.11 ± 0.047 | 1.2 ± 0.05 | 1.12 ± 0.071 | 1.21 ± 0.062 | 1.21 ± 0.074 | 1.19 ± 0.028 | 1.2 ± 0.078 | 1.13 ± 0.058 |
| MG63 BONE | 1.05 ± 0.04 | 1.07 ± 0.053 | – | 1.11 ± 0.043 | 1 ± 0.052 | 0.827 ± 0.034 | 0.743 ± 0.031 | 1.09 ± 0.022 | 1.06 ± 0.038 | 1.11 ± 0.057 | 1.09 ± 0.042 | 1.09 ± 0.021 | 1.07 ± 0.045 | 1.05 ± 0.041 | 1.03 ± 0.017 | 1.07 ± 0.051 |
| SAOS2 BONE | 1.14 ± 0.063 | 1.12 ± 0.023 | 1.2 ± 0.044 | 1.23 ± 0.068 | 1.19 ± 0.1 | 0.541 ± 0.046 | 0.1927 ± 0.00058 | 1.1 ± 0.015 | 1.16 ± 0.11 | 1.23 ± 0.041 | 1.16 ± 0.018 | 1.183 ± 0.0029 | 1.24 ± 0.04 | 1.204 ± 0.012 | 1.1 ± 0.017 | 1.34 ± 0.14 |
| SYO1 SYNOVIAL | 0.967 ± 0.015 | 1.03 ± 0.029 | 0.953 ± 0.094 | 1 ± 0.028 | 0.891 ± 0.018 | 0.399 ± 0.03 | 0.169 ± 0.008 | 1.01 ± 0.048 | 1.03 ± 0.02 | 1.03 ± 0.014 | 1.01 ± 0.013 | 1.031 ± 0.0036 | 1.03 ± 0.029 | 1.01 ± 0.018 | 1.01 ± 0.062 | 0.978 ± 0.042 |
| OSHN BONE | 1.11 ± 0.026 | 1.12 ± 0.035 | 1.12 ± 0.032 | 1.14 ± 0.027 | 1.14 ± 0.044 | 1.08 ± 0.048 | 0.677 ± 0.067 | 1.13 ± 0.021 | 1.102 ± 0.009 | 1.12 ± 0.022 | 1.09 ± 0.029 | 1.13 ± 0.016 | 1.13 ± 0.031 | 1.11 ± 0.017 | 1.09 ± 0.024 | 1.12 ± 0.081 |
| SG31 HEADNECK | – | 1.2 ± 0.13 | 1.01 ± 0.12 | 1.22 ± 0.24 | 1.19 ± 0.18 | 0.856 ± 0.073 | 0.6 ± 0.058 | 1.21 ± 0.14 | 1.11 ± 0.19 | 1.09 ± 0.12 | 0.866 ± 0.035 | 1.06 ± 0.13 | 0.997 ± 0.03 | 1.13 ± 0.23 | 0.981 ± 0.065 | 1.17 ± 0.26 |
| HCC78 LUNG | 0.99 ± 0.11 | 1 ± 0.074 | – | – | 0.522 ± 0.082 | 0.216 ± 0.062 | 0.072 ± 0.029 | 0.94 ± 0.12 | 0.911 ± 0.058 | 1.09 ± 0.15 | 1.06 ± 0.23 | 1.12 ± 0.16 | 1.15 ± 0.25 | 0.936 ± 0.063 | 0.823 ± 0.24 | 0.521 ± 0.021 |
| HOS BONE | 1.03 ± 0.026 | – | 1.05 ± 0.017 | – | 1.09 ± 0.022 | 0.685 ± 0.041 | 0.575 ± 0.014 | 1.03 ± 0.02 | 1.025 ± 0.0032 | 1.08 ± 0.029 | 1.02 ± 0.014 | 1.09 ± 0.019 | 1.095 ± 0.0072 | 1.08 ± 0.028 | 1.06 ± 0.025 | 1.04 ± 0.025 |

Source: the supplement of paper PMC6045584
